Literature values, collected in paper PMC7465340, “Preparation and Evaluation of Eudragit L100-PEG Proliponiosomes for Enhanced Oral Delivery of Celecoxib” (Pharmaceutics, 2020).
Converted amounts (≈) assume the structure as drawn. Where two headings read alike, the source gives them in different places.

Q: For `Cc1ccc(-c2cc(C(F)(F)F)nn2-c2ccc(S(N)(=O)=O)cc2)cc1` [CXB, Celecoxib], which “solubility in aqueous media” value (pH 1.2) is on record?
A: 1.4 µg/mL (≈ 3.67 µM)

Q: And the “solubility in aqueous media” value (pH 6.8)?
A: 1.2 µg/mL (≈ 3.15 µM)

Q: And the “solubility of free CXB” value (pH 6.8)?
A: ≈ 1.23 ± 0.05 μg/mL
